# Laboratory results: patent publication US20160038454A1, “INTRAVENOUS FORMULATIONS OF […] AS IMMUNOMODULATORS AND […] AGENTS” (priority 2013, published 2016)
# Where two headings read alike, the source gives them in different places.
# Legend:
# [1] = Conversion to triptolide using human serum; assay type: in vitro ADME
# Excerpt: (Xia Zhi Lin and Zhen You Lan, Haematologica, 93:14 (2008)).
# [2] = test system: human T cell lymphoma (Jurkat) cells; settings: cited from earlier work
# [3] = test system: IL-2 production by Jurkat cells; settings: cited from earlier work
# rat model of PD = settings: 0.5-1 μg/kg; Cheng et al., 2002; cited from earlier work
# [4] = test system: primary cultured rat mesencephalic neurons; settings: Li et al., 2003; cited from earlier work
# [5] = test system: IL-2 production by Jurkat cells; assay: cells; assay type: cell-based, human; settings: for IC50: read-out: Immunosuppression IL-2 (IC50)
# Experimental: Test samples can be diluted to 1 mM in complete tissue culture medium. Aliquots are placed in microculture plates coated with anti-CD3 antibody (used to stimulate the production of IL-2 by Jurkat cells), and serial dilutions are prepared so that the final concentration encompass the range of 0.001 to 10,000 nM in log increments. Cells from an exponentially expanding culture of Jurkat human T cell line (#TIB-152 obtained from American Type Culture Collection, Manassas, Va.) are harvested, washed once by centrifugation, re-suspended in complete tissue culture medium, and diluted to a concentration of 2×10^6 cells/ml. A volume of 50 μl of Jurkat cells (1×10^5 cells) is added to wells containing 100 μl of the diluted compounds, 50 μl of PMA (10 ng/ml) is added to each well, and the plates are incubated at 37° C. in a 5% CO2 incubator. After 24 hours, the plates are centrifuged to pellet the cells, 150 μl of supernatant is removed from each well, and the samples are stored at −20° C. The stored supernatants are analyzed for human IL-2 concentration using the Luminex 100 (Luminex Corporation, Austin, Tex.), Luminex microspheres coupled with anti-IL-2 capture antibody, and fluorochrome-coupled anti-IL-2 detection antibody. The data are expressed as pg/ml of IL-2.
# [6] = test system: human T cell lymphoma (Jurkat) cells; assay: in vitro; assay type: cell-based
# Experimental: (§1) Test compounds may be dissolved in DMSO at a concentration of 20 mM. Further dilutions may be done in RPMI1640 medium (GIBCO, Rockville, Md.) supplemented with 10% Fetal Calf Serum (HyClone Laboratories, Logan, Utah).
# (§2) Cytotoxicity of the compounds is determined in a standard MTT assay using Cell Proliferation Kit I (#1 465 007, Roche Diagnostics, Mannheim, Germany). Briefly, human T cell lymphoma (Jurkat) cells (4×10^5 per well) are cultured for 24 h, in 96-well tissue culture plates, in the presence of serial three-fold dilutions of test compounds or medium containing the same concentration of DMSO as in the test samples at each dilution point. The cultures are then supplemented with 10 μl/well MTT reagent for 4 h and then with 0.1 ml/well solubilizing reagent for an additional 16 h. Optical density at 570 nm (OD570) is measured on a ThermoScan microplate reader (Molecular Devices, Menlo Park, Calif.).
# patients with AML = settings: given intravenously; Xia Zhi Lin and Zhen You Lan 2008; cited from earlier work
# bleomycin-induced PF = settings: G. Krishna et al., 2001; cited from earlier work
# in vitro = assay type: cell-based, human; settings: human; Jurkat cells; test compounds incubated in serum for 24 hrs; read-out: Viability/Cytotoxicity MTT (ED50)
# Experimental: as §1, §2
# PC12 cells = settings: cited from earlier work
# [7] = test system: lipopolysaccharide (LPS)-activated microglial activity; settings: Zhou et al., 2003; cited from earlier work
# [8] = TK: plasma triptolide levels, Calvert study (emulsion); assay type: in vivo, rodents; settings: for Plasma Triptolide Concentration: 0.15 mg/kg (emulsion)
# Experimental: Triptolide prodrugs are generally believed to be safer than triptolide. […] Triptolide prodrugs as an emulsion formulation are believed to have a toxicokinetic profile characterized by a flat AUC with a minimized Cmax. [In conjunction, it was postulated that a sustained inhibition of RNA polymerase is needed for optimum efficacy which in turn requires a pharmcokinetic profile of constant exposure to drug]. […] The no effect dose (“NOAEL”) of PG796(MRx102) again exceeded 1.5 mg/kg/day intravenously for seven days in rodents confirming the initial results. It is interesting to ask why a prodrug of triptolide would be safer than the natural product itself; while not wishing to be bound by theory, perhaps the answer lies in the pharmacokinetic profile of triptolide administered either directly or released from its carrier, PG796(MRx102). […] It also remained above the therapeutic levels (shown as a thick line without symbols). The difference in the Cmax/AUC profile of PG796(MRx102) vs. triptolide is believed to be due to the physiochemical properties of the lipid prodrug/emulsion formulation combination. In general, triptolide prodrugs having a cLogP greater than 0.5 are more lipid-soluble than water soluble and are expected to take longer to convert to the drug form; such characteristics may yield a flatter conversion profile and less of a drug-release Cmax spike.
# TK comparison of triptolide levels in Calvert and SRI studies—Males and Females
# [9] = biological target: T1, human XPB (also known as ERCC3) (Homo sapiens, UniProt P19447); settings: Titov et al. 2011; cited from earlier work
# T1 sequence (P19447 1-782): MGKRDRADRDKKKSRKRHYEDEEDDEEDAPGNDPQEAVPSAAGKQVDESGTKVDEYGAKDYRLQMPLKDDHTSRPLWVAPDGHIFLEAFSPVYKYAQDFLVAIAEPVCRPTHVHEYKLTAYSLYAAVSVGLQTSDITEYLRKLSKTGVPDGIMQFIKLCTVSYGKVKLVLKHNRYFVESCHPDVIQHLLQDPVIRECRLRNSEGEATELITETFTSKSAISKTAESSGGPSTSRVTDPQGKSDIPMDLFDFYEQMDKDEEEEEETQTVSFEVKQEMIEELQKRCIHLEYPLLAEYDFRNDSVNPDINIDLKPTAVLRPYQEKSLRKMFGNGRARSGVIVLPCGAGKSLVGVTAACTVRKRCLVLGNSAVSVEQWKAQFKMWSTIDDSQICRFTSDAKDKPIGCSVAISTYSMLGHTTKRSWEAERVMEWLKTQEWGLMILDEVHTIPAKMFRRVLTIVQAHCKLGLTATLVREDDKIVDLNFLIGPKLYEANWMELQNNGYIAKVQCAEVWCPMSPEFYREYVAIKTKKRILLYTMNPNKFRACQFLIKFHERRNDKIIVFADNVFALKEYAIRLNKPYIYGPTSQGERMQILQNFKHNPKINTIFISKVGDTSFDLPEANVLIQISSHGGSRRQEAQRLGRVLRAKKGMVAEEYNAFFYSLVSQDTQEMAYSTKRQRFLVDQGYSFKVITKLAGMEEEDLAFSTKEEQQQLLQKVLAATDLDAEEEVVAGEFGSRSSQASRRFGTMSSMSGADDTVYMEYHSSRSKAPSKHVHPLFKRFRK
# [10] = test system: primary mesencephalic neuron/glia mixed culture; settings: Li et al., 2004; cited from earlier work
# [11] = incubated in human serum compared with mouse serum
# [12] = FIG. 1, triptolide provided alone
compound,measurement,setting,value
CC(C)[C@]12O[C@H]1[C@@H]1O[C@]13[C@]1(O[C@H]1C[C@H]1C4=C(CC[C@@]13C)C(=O)OC4)[C@@H]2OC(=O)CCC(=O)[O-].[Na+] [PG490-88Na],conversion to triptolide in human serum,[1],incompletely converted
"CC(C)[C@]12O[C@H]1[C@@H]1O[C@]13[C@]1(O[C@H]1C[C@H]1C4=C(CC[C@@]13C)C(=O)OC4)[C@H]2F [PG763, 14-deoxy-14α-fluoro triptolide]","cytotoxicity in Jurkat cells (as reported in U.S. application 60/449,976)",[2],cytotoxicity in human T cell lymphoma (Jurkat) cells
same,"inhibition of IL-2 (as reported in U.S. application 60/449,976)",[3],inhibition of IL-2
CC(C)[C@]1(O)[C@H](Cl)[C@@H]2O[C@]23[C@]2(O[C@H]2C[C@H]2C4=C(CC[C@@]23C)C(=O)OC4)[C@@H]1O [Tripchlorolide],recovery of rats undergoing neurosurgery,rat model of PD,improves recovery
same,protection from neurotoxic lesion induced by 1-methyl-4-phenylpyridinium ion,[4],protects dopaminergic neurons
triptolide 14-succinate [PG490-88],activity in IL-2 inhibition assay after incubation in human serum vs mouse serum,[5]; [11],much less active
same,activity in MTT assay after incubation in human serum vs mouse serum,[6]; [11],much less active
same,clinical activity in patients with AML,patients with AML,promising activity
14-succinimide ester of triptolide,bleomycin-induced PF,bleomycin-induced PF,block bleomycin-induced PF
CC(C)[C@]12O[C@H]1[C@@H]1O[C@]13[C@@]1(OC(=O)O[C@H]21)[C@H](Cl)C[C@H]1C2=C(CC[C@@]13C)C(=O)OC2 [PG762],IC50,"[5]; Homo sapiens, Jurkat, 24 h",9 nM
same,EC50 at 24 h,in vitro,60 nM
same,cytotoxic activity in MTT assay (in words),"[6]; Jurkat cells, comparison with triptolide or PG490-88",comparable potency
triptolide [PG490],β-amyloid-induced apoptosis,PC12 cells,markedly inhibit
same,"LPS-activated microglial activity (nitrite accumulation, TNF-α and IL-1β release)",[7],powerful inhibitory influence
same,Plasma Triptolide Concentration,"[8]; females, 0 hrs",0 ng/mL
same,Plasma Triptolide Concentration,"[8]; females, 0.25 hrs",74.6 ng/mL
same,Plasma Triptolide Concentration,"[8]; females, 0.5 hrs",18.4 ng/mL
same,Plasma Triptolide Concentration,"[8]; females, 1 hrs",13.2 ng/mL
same,Plasma Triptolide Concentration,"[8]; females, 2 hrs",0 ng/mL
same,Plasma Triptolide Concentration,"[8]; females, 24 hrs",0 ng/mL
same,Plasma Triptolide Concentration,"[8]; males, 0 hrs",0 ng/mL
same,Plasma Triptolide Concentration,"[8]; males, 0.25 hrs",59.0 ng/mL
same,Plasma Triptolide Concentration,"[8]; males, 0.5 hrs",14.9 ng/mL
same,Plasma Triptolide Concentration,"[8]; males, 1 hrs",3.6 ng/mL
same,Plasma Triptolide Concentration,"[8]; males, 2 hrs",0 ng/mL
same,Plasma Triptolide Concentration,"[8]; males, 24 hrs",0 ng/mL
same,triptolide Cmax (in words),[8]; [12],very high Cmax
same,triptolide in circulation by two hours post-dose,[8]; [12],none remained in circulation
same,IC50,"[5]; Jurkat cells, test compounds incubated in serum for 24 hrs",4 nM
same,DNA-dependent ATPase activity of XPB,[9],inhibit
same,binding to human XPB,[9],covalently bind
same,LPS-induced decrease in 3H-dopamine uptake and loss of tyrosine hydroxylase-positive neurons,[10],attenuates
